{
  "source": "patent US9555118B2",
  "about": "“Robust controlled-release peptide formulations” (CAMURUS AB, priority 2011, dated 2017)",
  "origin": "cited, not measured here",
  "key": {"[1]": {"conditions": "single subcutaneous dose, human plasma"}, "[2]": {"test_system": "somatostatin receptors (SSTR1-SSTR5)"}},
  "note": "*1 amine or outer side, *2 acyl side, *3 side chain or, on linkers, in order; H or OH if unused. Where a SMILES comes first, the peptide text is derived from it. Side-chain parts run from the residue outwards. [ ]: non-standard residue; d: D form. The star is where a group is joined. Ethylenediamine = C(CN[*:2])N[*:1]; Hyp = O=C(O)[C@@H]1C[C@@H](O)CN1; Phg = N[C@H](C(=O)O)c1ccccc1; CO = O=C([*:1])[*:2]; Bn = c1ccc(C*)cc1",
  "data": [
    {"compound": "NCCCC[C@@H]1NC(=O)[C@@H](Cc2c[nH]c3ccccc23)NC(=O)[C@H](c2ccccc2)NC(=O)[C@@H]2C[C@@H](OC(=O)NCCN)CN2C(=O)[C@H](Cc2ccccc2)NC(=O)[C@H](Cc2ccc(OCc3ccccc3)cc2)NC1=O", "note": "[Pasireotide] (cyclo([Hyp]([CO-Ethylenediamine])[Phg][dW]KY(Bn)F))", "values": [
      {"measurement": "Initial half-life following the peak", "setting": "[1]", "value": "2 to 3", "unit": "h"},
      {"measurement": "Somatostatin receptor affinity", "setting": "[2]", "value": "high affinity for somatostatin receptor subtypes sstr1,2,3 and sstr5"}
    ]},
    {"compound": "Ala-Gly-Cys-Lys-Asn-Phe-Phe-Trp-Lys-Thr-Phe-Thr-Ser-Cys [SST-14]", "values": [
      {"measurement": "Biological half-life", "setting": "natural SST-14", "value": "1-3 minutes"},
      {"measurement": "Somatostatin receptor affinity", "setting": "[2]", "value": "equally high affinity"}
    ]},
    {"compound": "C[C@@H](O)[C@@H]1NC(=O)[C@H](CCCCN)NC(=O)[C@@H](Cc2c[nH]c3ccccc23)NC(=O)[C@H](Cc2ccccc2)NC(=O)[C@@H](NC(=O)[C@H](N)Cc2ccccc2)CSSC[C@@H](C(=O)N[C@H](CO)[C@@H](C)O)NC1=O", "note": "[Octreotide, D-Phe-Cys-Phe-D-Trp-Lys-Thr-Cys-Thr-ol (2-7 disulphide bridge)]", "values": [
      {"measurement": "Terminal half-life", "setting": "in vivo", "value": "around 1.7 hours"},
      {"measurement": "Somatostatin receptor selectivity", "setting": "[2]", "value": "high selectivity for SSTR2 and SSTR5"}
    ]}
  ]
}
